{"source": "patent US20100280120A1", "about": "“COMPOUND INDUCING ANGIOGENESIS RESPONSE IN ISCHAEMIC TISSUES” (Green Cross Therapeutics Private Limited, priority 2007, published 2010)", "key": {"Swiss albino mice": {"tested_on": "Swiss albino mice", "assay": "Systemic toxicity in mice: serum toxicity marker enzymes (GOT, GPT, ALP)", "details": "doxorubicin 5 mg/kg body weight", "experimental": "All animal experiments were performed following ‘Principles of laboratory animal care’ (NIH publication No. 85-23, revised in 1985) as well as specific Indian laws on ‘Protection of Animals’ under the provision o authorized investigators. Swiss albino mice (˜20 g each; 10-12 weeks old; 3 mice in each group) were randomly divided into (i) untreated set (i.v. injected with PBS as vehicle only) and (ii) drug-treated set (Compound of this invention 0.1, 0.3, 1.0, 3.0, 10 and 30 mg/kg body weight) for 14 days. Untreated mice received sterile PBS as carrier vehicle. Doxorubicin (5 mg/kg body weight) was used as positive control for toxicity assays.\nFor statistical analysis, one-way analysis of variance (ANOVA) was conducted, followed by the Newman-Keuls multiple comparison test. Mean differences with p<0.05 were considered statistically significant.\nHepato and cardio toxicity due to drug regimens are the shortfall in many instances. The serum levels of GOT, GPT and ALP are clinical indicators of drug-induced toxicity. Blood samples were collected from the retro-orbital plexus of normal and the subject compound-treated mice. Total serum glutamate oxaloacetate transaminase ([…]), glutamate pyruvate transaminase (SGPT), and alkaline phosphate were assayed according to standard protocols.\nSerum GOT, GPT and ALP activities as a marker of systemic toxicity were measured from blood of untreated or treated mice."}, "[1]": {"tested_on": "primary cells or cell lines from various origin (human cell lines)", "assay": "In vitro toxicity screening of primary cells or cell lines, Trypan blue-exclusion viability test", "assay_type": "cell-based", "experimental": "To study the toxic effects of compound, a wide spectrum of primary cells or cell lines from various origin were screened for viability, using Trypan blue-exclusion test. Cells were grown in cultures in DMEM/F-12 (1:1) or RPMI 1640 media supplemented with 10% FBS, insulin (0.1 units/ml), L-glutamine (2 mM), sodium pyruvate (100 μg/ml), non-essential amino acids (100 μM), penicillin (100 units/ml) and streptomycin ([…]). Cells were incubated at 37° C. in a humidified atmosphere of 5% CO2.\nDifferent cells from different origins were cultured in vitro. Various doses of GC-S were added in culture medium. After 24 h number of surviving cells was counted. Each experiment was performed in triplicate and the values agreed well with those of independent experiments"}, "[2]": {"tested_on": "binding of human VEGF to its receptor on A549 cells", "assay": "Angiogenic potential: binding of human VEGF to its receptors on A549 cells (anti-VEGF immunofluorescence, confocal)", "assay_type": "cell-based", "experimental": "The angiogenic potential of compound was tested by binding human VEGF to its putative receptors. Human lung epithelial cells (A549 which are highly metastatic and therefore angiogenic in nature) were grown on coverslip in DMEM/F-12 (1:1) or RPMI 1640 media supplemented with 10% FBS, insulin (0.1 units/ml), L-glutamine (2 mM), sodium pyruvate (100 μg/ml), non-essential amino acids (100 μM), penicillin (100 units/ml) and streptomycin ([…]). Cells were incubated at 37° C. in a humidified atmosphere of 5% CO2. The pH of the medium was maintained at 6.2 for the binding assay of VEGF to its receptor in the presence of compound. The cells were pre-treated with media alone or with 25 μg/ml compound for 30 min. The cells were then incubated with 10 ng/ml human VEGF for further 30 min at 37° C. in a humidified atmosphere of 5% CO2. The cells were fixed and stained with anti-VEGF antibody coupled with Alexaflour 488. The cells were visualized in Zeiss-confocal microscope."}}}
{"compound": "COc1cccc2c1C(=O)c1c(O)c3c(c(O)c1C2=O)C[C@@](O)(C(=O)CO)C[C@@H]3O[C@H]1C[C@H](N)[C@H](O)[C@H](C)O1", "note": "[Doxorubicin]", "values": [{"measurement": "ALP", "setting": "Swiss albino mice", "result": 43, "unit": "KA units"}, {"measurement": "SGOT", "setting": "Swiss albino mice", "result": 79, "unit": "IU/dL"}, {"measurement": "SGPT", "setting": "Swiss albino mice", "result": 68, "unit": "IU/dL"}, {"measurement": "Levels of serum GOT and GPT", "setting": "Swiss albino mice; positive control, p<0.05", "result": "significantly increased"}]}
{"compound": "NCCCCC(N)C(=O)O", "note": "(stereo not drawn) [Compound of this invention]", "values": [{"measurement": "Toxicity to cells", "setting": "[1]; 100 and 200 μg/mL doses, below significant killing", "result": "mild toxicity"}, {"measurement": "Toxic effects on cells", "setting": "[1]; doses 12.5 to 200 μg/mL range", "result": "no toxic effects"}, {"measurement": "Percent of cell killing", "setting": "[1]; up to 50 μg/mL doses, 24 h, Trypan blue exclusion", "result": "less than 5%"}, {"measurement": "Increase of binding of VEGF to its receptor", "setting": "[2]; A549 cells pre-incubated with 25 μg/ml compound 30 min, then 10 ng/ml human VEGF 30 min, pH 6.2", "result": "10-15 times"}, {"measurement": "VEGF binding on the membrane of normal A549 cell after compound treatment", "setting": "[2]; A549 cells, compound alone, no added VEGF", "result": "remains unaltered"}]}
